Experimental data taken from patent US8912146B2, “Derivatives of APF and methods of use” (University of Maryland, Baltimore, priority 2008, dated 2014).
Entries after “also recorded” stand apart in the source; their conditions may differ. Where a SMILES comes first, the peptide text is derived from it. [ ]: non-standard residue; d: D form. The star is where a group is joined. ξ: configuration not given here. X1 = CC(=O)NC1C(O[C@@H]2OC(CO)[C@H](O)C(O)C2O)[C@@H](O)C(CO)O[C@@H]1*; Thr(3ξ) = CC(O)[C@H](N)C(=O)O; ξI = CCC(C)C(N)C(=O)O; ξV = CC(C)C(N)C(=O)O; ξA = CC(N)C(=O)O

Columns and labels:
[1] = system: primary normal human bladder epithelial cells; assay: 3H-thymidine incorporation (antiproliferative activity) in primary normal bladder epithelial cells; type: cell-based; settings: for % of activity: relative to 1 (as-APF) run on the same plate, from IC50, inactive = no significant activity at <25 μM
Protocol: Cell Culture. Cystoscopy was performed under general anesthesia, and 4-mm^2 pieces of transitional epithelium with submucosal bladder tissue were obtained for the growth of primary bladder epithelial cells, as previously described (Keay et al., 1996; 2004). Primary normal bladder epithelial cells were propagated in DMEM-F12 (Media-Tech, Herndon Va.) with 10% heat-inactivated fetal bovine serum (FBS), 1% antibiotic/antimycotic solution, 1% L-glutamine, 0.25 units/mL insulin (all from Sigma, St. Louis, Mo.), and 5 ng/mL hEGF (R&D Systems, Minneapolis, Minn.) at 37° C. in a 5% CO2 atmosphere and characterized by binding of AE-1/AE-3 pancytokeratin antibodies (Signet, Dedham, Mass.).
^3H-Thymidine Incorporation. Cell proliferation was measured by ^3H-thymidine incorporation into explanted normal human bladder epithelial cells, plating 1.5×10^4 cells/well onto a 96 well cell culture plate (VWR 29442-054), in 150 ul/well MEM containing 10% heat inactivated FBS, 1% antibiotic/antimycotic solution, and 1% L-glutamine (all from Sigma), resulting in a doubling time of 48-72 hours, as previously described (Keay et al., 1996; 2004). Each purified lyophilized synthetic APF congener was resuspended in acetonitrile/distilled water (1:1), and applied to the cells in serum-free MEM (containing only L-glutamine and antibiotics/antimycotics); cell controls received acetonitrile/distilled water diluted in serum-free MEM alone. Cells were then incubated at 37° C. in a 5% CO2 atmosphere for 48 hours. The cell contents harvested and methanol-fixed onto glass fiber filter paper, and the amount of radioactivity incorporated determined. Significant inhibition of ^3H-thymidine incorporation was defined as a mean decrease in counts per minute of greater than 2 standard deviations from the mean of control cells for each plate. Inhibition of cell proliferation was determined from a semi-log plot of dose-response for each APF derivative; IC50 was determined as the concentration of each derivative that caused a mean 50% inhibition of thymidine incorporation as compared to the mean of untreated cell controls.
Statistical Analysis. The thymidine incorporation (APF biological activity) assay was performed in triplicate on at least two separate runs, with 1 run simultaneously in triplicate on the same plate. The significance of the difference between mean values for each congener vs. mean values for compound 1 was determined by an analysis of variance.

[2] = system: primary normal human bladder epithelial cells; settings: Keay et al., 2004; cited from earlier work
[3] = system: carcinoma cell lines (WiDr, HeLa, PANC-1, CaOv3, BT474, ACHN, T24, A549); assay: 3H-thymidine incorporation in carcinoma cell lines; type: cell-based; settings: 48 hrs, compared to cell medium alone (p<0.00001); listed as negative control peptide
Protocol: Ovarian carcinoma (Caov-3), prostate carcinoma (LNCaP), melanoma (Hs839.T), pancreatic carcinoma (PANC-1), bladder carcinoma (T24, RT4 and TCCSuP), kidney carcinoma (ACHN), cervical carcinoma (HeLa), lung carcinoma (A549), colon carcinoma (WiDr), and breast carcinoma (Bt-474) cells were all purchased from the American Type Culture Collection (ATCC). Caov-3, HS839.T, PANC-1, and BT-474 cells were grown in DMEM medium (with 4 mM L-glutamine—Gibco BRL) containing 10% heat-inactivated fetal calf serum, 4.5 g/L glucose, 1.5 g/L sodium bicarbonate and 1% antibiotic/antimycotic solution (all supplements from Sigma except sodium bicarbonate which is from Gibco BRL). LNCaP cells were grown in RPMI medium (with 2 mM L-glutamine—Gibco BRL) containing10% heat-incativated fetal calf serum, 10 mM HEPES buffer, 1 mM sodium pyruvate, 4.5 g/L glucose, 1.5 g/L sodium bicarbonate, and 1% antibiotic/antimycotic solution (all supplements from Sigma except sodium bicarbonate which is from Gibco BRL). […]
Cancer (carcinoma or melanoma) cell proliferation was measured by ^3H-thymidine incorporation into each type of cancer cell, plating 3.0×10^3 cells/well (A549 cells) or 1.5×10^3 cells/well (all other cancer cells) onto a 96 well cell culture plate (VWR 29442-054), in 150 ul/well of the respective normal growth medium for each cell type (see above). […]
(§1) Significance of the difference in mean values between groups was determined by an analysis of variance.
(§2) Cell proliferation was measured by ^3H-thymidine incorporation into each cell type, plating cells in […] of their respective medium (see above) onto a 96-well cell culture plate (Corning, N.Y.) at a predetermined optimal cell density for APF inhibition of cell proliferation: Caov-3, PANC-1, T24, HeLa, and HS839.T cells were plated at a density of 1.5×10^3 cells/well; A549 cells were plated at a density of 3×10^3 cells/well. […] Cells were then incubated at 37° C. in a 5% CO2 atmosphere for 48 hours, after which cell contents were harvested, methanol-fixed onto glass fiber filter paper, and the amount of radioactivity incorporated determined. […]

[4] = system: Hs839.T melanoma cells; assay: 3H-thymidine incorporation in melanoma cells; type: cell-based; settings: 48 hrs, compared to cell medium alone (p<0.00001); listed as negative control peptide
Protocol: Ovarian carcinoma (Caov-3), prostate carcinoma (LNCaP), melanoma (Hs839.T), pancreatic carcinoma (PANC-1), bladder carcinoma (T24, RT4 and TCCSuP), kidney carcinoma (ACHN), cervical carcinoma (HeLa), lung carcinoma (A549), colon carcinoma (WiDr), and breast carcinoma (Bt-474) cells were all purchased from the American Type Culture Collection (ATCC). Caov-3, HS839.T, PANC-1, and BT-474 cells were grown in DMEM medium (with 4 mM L-glutamine—Gibco BRL) containing 10% heat-inactivated fetal calf serum, 4.5 g/L glucose, 1.5 g/L sodium bicarbonate and 1% antibiotic/antimycotic solution (all supplements from Sigma except sodium bicarbonate which is from Gibco BRL). LNCaP cells were grown in RPMI medium (with 2 mM L-glutamine—Gibco BRL) containing10% heat-incativated fetal calf serum, 10 mM HEPES buffer, 1 mM sodium pyruvate, 4.5 g/L glucose, 1.5 g/L sodium bicarbonate, and 1% antibiotic/antimycotic solution (all supplements from Sigma except sodium bicarbonate which is from Gibco BRL). T24 and RT4 cells were grown in McCoy's 5A medium (Gibco BRL) containing 10% heat-inactivated fetal calf serum, 1% L-glutamine, 2.2 g/L sodium bicarbonate, and 1% antibiotic/antimycotic solution (all supplements from Sigma except sodium bicarbonate which is from Gibco BRL). TCCSuP, HeLa, and WiDr cells were grown in MEM (Gibco BRL) containing 10% heat-inactivated fetal calf serum, 1% L-glutamine, 1 mM sodium pyruvate, and 1% antibiotic/antimycotic solution (all supplements from Sigma). ACHN cells were grown in the same medium as TCCSuP and HeLa cells with the exception that it also contained 1.5 g/L sodium bicarbonate (Gibco BRL). A549 cells were grown in F12 medium (Gibco BRL) containing 10% heat-inactivated fetal calf serum, 1% L-glutamine, and 1% antibiotic/antimycotic solution (all supplements from Sigma).
Cancer (carcinoma or melanoma) cell proliferation was measured by ^3H-thymidine incorporation into each type of cancer cell, plating 3.0×10^3 cells/well (A549 cells) or 1.5×10^3 cells/well (all other cancer cells) onto a 96 well cell culture plate (VWR 29442-054), in 150 ul/well of the respective normal growth medium for each cell type (see above). All APF congeners were resuspended as described for normal bladder epithelial cells, except using the specific serum-free medium appropriate for each cell type, and the remainder of the assay was performed as described for normal bladder cells, above.
as §1
as §2, with “cells/well. On the next day, cell growth medium was removed and replaced with serum-free medium appropriate for each cell type.” for “cells/well.”

Molecule | antiproliferative activity compared with as-APF (1), in words [1] | % of activity [1] | activity in biological antiproliferation assays, previously determined [2] | also measured
CC(=O)NC1C(O[C@@H]2OC(CO)[C@H](O)C(O)C2O)[C@@H](O)C(CO)O[C@@H]1OC(C)[C@H](N)C(=O)NC(C(=O)N1CCC[C@H]1C(=O)NC(C)C(=O)N[C@@H](C)C(=O)NC(C(=O)N[C@H](C(=O)NC(C(=O)N[C@@H](CC(C)C)C(=O)O)C(C)C)C(C)C)C(C)C)C(C)C (stereo partly drawn) [Derivative 21] (H-[Thr(3ξ)](X1)[ξV]P[ξA]A[ξV]V[ξV]L-OH) | loss of most or all biological activity | 0.01% | – | –
CC(=O)NC1C(O[C@@H]2OC(CO)[C@H](O)C(O)C2O)[C@@H](O)C(CO)O[C@@H]1OC(C)[C@H](N)C(=O)NC(C(=O)N1CCC[C@H]1C(=O)NC(C)C(=O)N[C@H](C(=O)NC(C(=O)N[C@H](C(=O)NC(C(=O)N[C@@H](C)C(=O)O)C(C)C)C(C)C)C(C)C)C(C)C)C(C)C (some centres unmarked) [Derivative 22] (H-[Thr(3ξ)](X1)[ξV]P[ξA]V[ξV]V[ξV]A-OH) | loss of most or all biological activity | inactive | – | –
CC(=O)NC1C(O[C@@H]2OC(CO)[C@H](O)C(O)C2O)[C@@H](O)C(CO)O[C@@H]1OC(C)[C@H](N)C(=O)NC(C(=O)N1CCC[C@H]1C(=O)NC(C)C(=O)N[C@@H](CO)C(=O)NC(C(=O)N[C@H](C(=O)NC(C(=O)N[C@@H](CO)C(=O)O)C(C)C)C(C)C)C(C)C)C(C)C (some centres unmarked) [Derivative 23] (H-[Thr(3ξ)](X1)[ξV]P[ξA]S[ξV]V[ξV]S-OH) | partial inactivation | 0.2% | – | –
CC(=O)NC1C(O[C@@H]2OC(CO)[C@H](O)C(O)C2O)[C@@H](O)C(CO)O[C@@H]1OC(C)[C@H](N)C(=O)NC(C(=O)N1CCC[C@H]1C(=O)NC(C)C(=O)NCC(=O)NC(C(=O)N[C@H](C(=O)NC(C(=O)NCC(=O)O)C(C)C)C(C)C)C(C)C)C(C)C (some centres unmarked) [Derivative 24] (H-[Thr(3ξ)](X1)[ξV]P[ξA]G[ξV]V[ξV]G-OH) | complete inactivation | inactive | – | –
CC(=O)NC1C(O[C@@H]2OC(CO)[C@H](O)C(O)C2O)[C@@H](O)C(CO)O[C@@H]1OC(C)[C@H](N)C(=O)NC(C(=O)N1CCC[C@H]1C(=O)NC(C)C(=O)N[C@@H](C)C(=O)NC(C)C(=O)N[C@@H](C)C(=O)NC(C)C(=O)N[C@@H](C)C(=O)O)C(C)C (some centres unmarked) [Derivative 25] (H-[Thr(3ξ)](X1)[ξV]P[ξA]A[ξA]A[ξA]A-OH) | decreased antiproliferative activity | 1% | – | –
CC(=O)NC1C(O[C@@H]2OC(CO)[C@H](O)C(O)C2O)[C@@H](O)C(CO)O[C@@H]1OC(C)[C@H](N)C(=O)NC(C(=O)N1CCC[C@H]1C(=O)NC(C)C(=O)N[C@@H](C)C(=O)NCC(=O)NCC(=O)NCC(=O)N[C@@H](C)C(=O)O)C(C)C (some centres unmarked) [Derivative 26] (H-[Thr(3ξ)](X1)[ξV]P[ξA]AGGGA-OH) | complete inactivation of antiproliferative activity | 0.01% | – | –
CC(=O)NC1C(O[C@@H]2OC(CO)[C@H](O)C(O)C2O)[C@@H](O)C(CO)O[C@@H]1OC(C)[C@H](N)C(=O)NC(C(=O)N1CCC[C@H]1C(=O)NC(C)C(=O)N[C@@H](C)C(=O)NC(C(=O)NC(C(=O)NC(C(=O)N[C@@H](C)C(=O)O)C(C)C)C(C)C)C(C)C)C(C)C (some centres unmarked) [Derivative 27] | complete inactivation of antiproliferative activity | inactive | – | –
CCC(C)C(NC(=O)[C@H](C)NC(=O)C(C)NC(=O)[C@@H]1CCCN1C(=O)C(NC(=O)[C@@H](N)C(C)O[C@H]1OC(CO)[C@H](O)C(O[C@@H]2OC(CO)[C@H](O)C(O)C2O)C1NC(C)=O)C(C)C)C(=O)N[C@H](C(=O)NC(C(=O)N[C@@H](C)C(=O)O)C(C)CC)C(C)C (some centres unmarked) [Derivative 28] (H-[Thr(3ξ)](X1)[ξV]P[ξA]A[ξI]V[ξI]A-OH) | complete inactivation of antiproliferative activity | inactive | – | –
CC(=O)NC1C(O[C@@H]2OC(CO)[C@H](O)C(O)C2O)[C@@H](O)C(CO)O[C@@H]1OC(C)[C@H](N)C(=O)NC(C(=O)N1CCC[C@H]1C(=O)NC(C)C(=O)N[C@@H](C)C(=O)NC(C(=O)N[C@H](C(=O)NC(C(=O)N[C@@H](C)C(=O)O)C(C)C)C(C)C)C(C)C)C(C)C (some centres unmarked) [Derivative 36] | complete inactivity | inactive | – | –
Galβ1-3GalNAcβ-O-TVPAAVVVA | – | – | completely inactive | –
Galβ1-4GlcNAcα-O-SLPAAVVVA | – | – | essentially equipotent | –
Neu5Ac α 2-3Galβ1-4-GlcNAcα-O-TVPAAVVVA | – | – | essentially equipotent | –
Neu5Acα2-3Galβ1-3GalNAcα-O-TVPAAVVVA | – | – | essentially equipotent | –
Neu5Acα2-3Galβ1-4GlcNAcα-O-SLPAAVVVA | – | – | essentially equipotent | –
TVPAAVVVA [nonglycosylated nonapeptide, reference compound] | – | – | completely inactive | inhibition of carcinoma cell line proliferation [3]: no effect; also recorded: none of these cell lines was inhibited; inhibition of melanoma cell proliferation [4]: no effect; also recorded: none of these cell lines was inhibited
